Molecules are shown by their SMILES.

For this assay, the target named is TBK1 (Homo sapiens (Human), UniProt Q9UHD2). The assay can be described thus: TBK1 low ATP kinase assay (in vitro assay 1). It is filed as biochemical. To be noted: in vitro assay 1, read-out: TBK1 low ATP kinase assay IC50.
TBK1, sequence (Q9UHD2 whole entry): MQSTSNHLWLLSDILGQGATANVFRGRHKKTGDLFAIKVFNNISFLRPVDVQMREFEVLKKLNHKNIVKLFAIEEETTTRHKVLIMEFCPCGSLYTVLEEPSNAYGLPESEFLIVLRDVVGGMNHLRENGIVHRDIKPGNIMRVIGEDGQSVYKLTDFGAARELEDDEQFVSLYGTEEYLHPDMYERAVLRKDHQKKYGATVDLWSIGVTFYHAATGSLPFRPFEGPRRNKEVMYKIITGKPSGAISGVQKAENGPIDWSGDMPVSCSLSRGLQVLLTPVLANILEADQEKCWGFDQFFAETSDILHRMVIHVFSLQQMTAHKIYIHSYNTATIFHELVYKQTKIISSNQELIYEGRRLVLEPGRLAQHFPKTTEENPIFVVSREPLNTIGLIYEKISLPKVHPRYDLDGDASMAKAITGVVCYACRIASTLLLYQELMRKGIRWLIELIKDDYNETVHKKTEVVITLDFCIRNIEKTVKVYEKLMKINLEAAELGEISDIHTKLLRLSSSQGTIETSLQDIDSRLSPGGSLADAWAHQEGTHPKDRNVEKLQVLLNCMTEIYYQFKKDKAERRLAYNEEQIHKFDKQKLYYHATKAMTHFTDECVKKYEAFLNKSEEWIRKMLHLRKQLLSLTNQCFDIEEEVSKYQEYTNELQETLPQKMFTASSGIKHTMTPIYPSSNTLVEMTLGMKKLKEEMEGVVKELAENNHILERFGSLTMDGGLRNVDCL
With `CC(c1ccnc(Nc2nc3ccc(-c4cc(N5CCOCC5)ncn4)cc3[nH]2)c1)N1CCN(C(=O)C2(C(F)(F)F)CC2)CC1` (single isomer, unassigned) [Example 118.04, (4-{(1R or 1S)-1-[2-({6-[6-(morpholin-4-yl)pyrimidin-4-yl]-1H-benzimidazol-2-yl}amino)pyridin-4-yl]ethyl}piperazin-1-yl)[1-(trifluoromethyl)cyclopropyl]methanone], the IC50 (commonly the concentration that gives 50% inhibition) worked out at 2.6 nM.

Turning to `O=C(CC(F)(F)F)N1CCN(Cc2ccnc(Nc3nc4ccc(-c5ncnc6c5COC6)cc4[nH]3)c2)CC1` [Example 182.02, 1-{4-[(2-{[6-(5,7-dihydrofuro[3,4-d]pyrimidin-4-yl)-1H-benzimidazol-2-yl]amino}pyridin-4-yl)methyl]piperazin-1-yl}-3,3,3-trifluoropropan-1-one], the IC50 worked out at 110 nM.

On to `CN(C)c1cc(-c2ccc3nc(Nc4cc(CN5CCN(C(=O)CC(F)(F)F)CC5)ccn4)[nH]c3c2)ccn1` [Example 135.02, 1-(4-{[2-({6-[2-(dimethylamino)pyridin-4-yl]-1H-benzimidazol-2-yl)amino)pyridin-4-yl]methyl}piperazin-1-yl)-3,3,3-trifluoropropan-1-one], for which the IC50 turned out to be 23 nM.

Regarding `Cc1noc(-c2ccc3nc(Nc4cc(CN5CCN(C(=O)CC6CC6)CC5(C)C)ccn4)[nH]c3c2)n1` [Example 16.04.03, 2-cyclopropyl-1-{3,3-dimethyl-4-[(2-{[6-(3-methyl-1,2,4-oxadiazol-5-yl)-1H-benzimidazol-2-yl]amino}pyridin-4-yl)methyl]piperazin-1-yl}ethanone], the IC50 was 378 nM.

In the case of `CC(C)(C)OC(=O)N1CCN(Cc2ccnc(Nc3nc4ccc(-c5ccnc(C(F)F)c5)cc4[nH]3)c2)CC1` [Example 139.01, tert-butyl 4-{[2-({6-[2-(difluoromethyl)pyridin-4-yl]-1H-benzimidazol-2-yl}amino)pyridin-4-yl]methyl}piperazine-1-carboxylate], the IC50 stood at 55 nM.

For `CCOc1c(-c2cnn(CC)c2)ccc2nc(Nc3cc(CN4CCN(C(=O)C5CC5)CC4)ccn3)[nH]c12` [Example 53.02, cyclopropyl{4-[(2-{[7-ethoxy-6-(1-ethyl-1H-pyrazol-4-yl)-1H-benzimidazol-2-yl]amino}pyridin-4-yl)methyl]piperazin-1-yl}methanone], the IC50 was found to be 121 nM.

In the case of `COc1cc(-c2ccc3nc(Nc4cc(CN5CCN(C(=O)OC(C)(C)C)CC5)ccn4)[nH]c3c2)ccn1` [Example 02.01, tert-butyl 4-[(2-{[6-(2-methoxypyridin-4-yl)-1H-benzimidazol-2-yl]amino}pyridin-4-yl)methyl]piperazine-1-carboxylate], the IC50 stood at 131 nM.

Take `COc1c(NC2CC2)ncnc1-c1ccc2nc(Nc3cc(CN4CCN(C(=O)C5CC5)CC4)ccn3)[nH]c2c1` [Example 108.03, cyclopropyl(4-{[2-({6-[6-(cyclopropylamino)-5-methoxypyrimidin-4-yl]-1H-benzimidazol-2-yl}amino)pyridin-4-yl]methyl}piperazin-1-yl)methanone]: the IC50 was determined as 8.9 nM.

In the case of `CCn1cc(-c2ccc3nc(Nc4cc(CN5CCN(C(=O)C6CC6)CC5)ccn4)[nH]c3c2OCC(C)C)cn1` [Example 52.02, cyclopropyl{4-[(2-{[6-(1-ethyl-1H-pyrazol-4-yl)-7-(2-methylpropoxy)-1H-benzimidazol-2-yl]amino}pyridin-4-yl)methyl]piperazin-1-yl}methanone], the IC50 turned out to be 36.9 nM.

In the case of `O=C(CC(F)(F)F)N1CCN(Cc2ccnc(Nc3nc4ccc(-c5ncnc(NC6CC6)c5F)cc4[nH]3)c2)CC1` [Example 192.02, 1-(4-{[2-({6-[6-(cyclopropylamino)-5-fluoropyrimidin-4-yl]-1H-benzimidazol-2-yl}amino)pyridin-4-yl]methyl}piperazin-1-yl)-3,3,3-trifluoropropan-1-one], the IC50 was 18.3 nM.

For the compound `COc1cc(-c2ccc3nc(Nc4cc(CN5CCN(C(=O)CC(F)(F)F)CC5)ccn4)[nH]c3c2)c(F)cn1` [Example 03.02, 3,3,3-trifluoro-1-{4-[(2-{[6-(5-fluoro-2-methoxypyridin-4-yl)-1H-benzimidazol-2-yl]amino}pyridin-4-yl)methyl]piperazin-1-yl}propan-1-one], the IC50 came to 232 nM.

Consider `CC(c1ccnc(Nc2nc3ccc(-c4cc(OCC(F)(F)C(F)(F)F)ncn4)cc3[nH]2)c1)N1CCN(C(=O)OC(C)(C)C)CC1` (single isomer, unassigned) [Example 166.01, tert-butyl 4-{(1R or 1S)-1-[2-({6-[6-(2,2,3,3,3-pentafluoropropoxy)pyrimidin-4-yl]-1H-benzimidazol-2-yl}amino)pyridin-4-yl]ethyl}piperazine-1-carboxylate], for which the IC50 came to 300 nM.

For the compound `Cc1noc(-c2ccc3nc(Nc4cc(CN5CCN(C(=O)C6CC6)CC5)ccn4)[nH]c3c2)n1` [Example 16.01.04, cyclopropyl{4-[(2-{[6-(3-methyl-1,2,4-oxadiazol-5-yl)-1H-benzimidazol-2-yl]amino}pyridin-4-yl)methyl]piperazin-1-yl}methanone], the IC50 turned out to be 67 nM.

Turning to `Cc1noc(-c2ccc3nc(Nc4cc(C(C)N5CCN(C(=O)C6CC6)CC5)ccn4)[nH]c3c2)n1` (single isomer, unassigned) [Example 16.06.03.A, cyclopropyl{4-[(1R or 1S)-1-(2-{[6-(3-methyl-1,2,4-oxadiazol-5-yl)-1H-benzimidazol-2-yl]amino}pyridin-4-yl)ethyl]piperazin-1-yl}methanone], the IC50 came to 13.8 nM.

For the compound `CCOc1c(-c2cnn(CC)c2)ccc2nc(Nc3cc(CN4CCN(C(=O)CC(F)(F)F)CC4)ccn3)[nH]c12` [Example 53.01, 1-{4-[(2-{[7-ethoxy-6-(1-ethyl-1H-pyrazol-4-yl)-1H-benzimidazol-2-yl]amino}pyridin-4-yl)methyl]piperazin-1-yl}-3,3,3-trifluoropropan-1-one], the IC50 stood at 132 nM.

On to `COc1c(OCC2CC2)ncnc1-c1ccc2nc(Nc3cc(CN4CCN(C(=O)CC(F)(F)F)CC4)ccn3)[nH]c2c1` [Example 65.01.02, 1-(4-{[2-({6-[6-(cyclopropylmethoxy)-5-methoxypyrimidin-4-yl]-1H-benzimidazol-2-yl}amino)pyridin-4-yl]methyl}piperazin-1-yl)-3,3,3-trifluoropropan-1-one], for which the IC50 stood at 58.4 nM.

Turning to `COc1nccc(-c2ccc3nc(Nc4cc(CN5CCN(C(=O)CC6CC6)CC5)ccn4)[nH]c3c2)n1` [Example 25.01.03, 2-cyclopropyl-1-{4-[(2-{[6-(2-methoxypyrimidin-4-yl)-1H-benzimidazol-2-yl]amino}pyridin-4-yl)methyl]piperazin-1-yl}ethanone], the IC50 is 96.7 nM.

In the case of `O=C(C1CC1)N1CCN(Cc2ccnc(Nc3nc4ccc(-c5ccnc(C(F)F)c5)cc4[nH]3)c2)CC1` [Example 139.03, cyclopropyl(4-{[2-({6-[2-(difluoromethyl)pyridin-4-yl]-1H-benzimidazol-2-yl}amino)pyridin-4-yl]methyl}piperazin-1-yl)methanone], the IC50 was 9.7 nM.

Consider `Cc1noc(C)c1-c1cc(-c2ccc3nc(Nc4cc(CN5CCN(C(=O)OC(C)(C)C)CC5)ccn4)[nH]c3c2)ncn1` [Example 92.01, tert-butyl 4-{[2-({6-[6-(3,5-dimethyl-1,2-oxazol-4-yl)pyrimidin-4-yl]-1H-benzimidazol-2-yl}amino)pyridin-4-yl]methyl}piperazine-1-carboxylate], for which the IC50 was 88 nM.

Consider `CC(c1ccnc(Nc2nc3ccc(-c4cnn(CC5CCC5)c4)c(Cl)c3[nH]2)c1)N1CCN(C(=O)CC(F)(F)F)CC1` (single isomer, unassigned) [Example 75.02, 1-(4-{(1R or 1S)-1-[2-({7-chloro-6-[1-(cyclobutylmethyl)-1H-pyrazol-4-yl]-1H-benzimidazol-2-yl}amino)pyridin-4-yl]ethyl}piperazin-1-yl)-3,3,3-trifluoropropan-1-one], for which the IC50 was determined as 1.4 nM.

For `CC(c1ccnc(Nc2nc3ccc(-c4cc(C(F)(F)F)ncn4)c(F)c3[nH]2)c1)N1CCN(C(=O)OC(C)(C)C)CC1` (single isomer, unassigned) [Example 173.01, tert-butyl 4-{(1R or 1S)-1-[2-({7-fluoro-6-[6-(trifluoromethyl)pyrimidin-4-yl]-1H-benzimidazol-2-yl}amino)pyridin-4-yl]ethyl}piperazine-1-carboxylate], the IC50 was determined as 396 nM.

With `Cc1cc(CN2CCN(C(=O)CC(F)(F)F)CC2)cc(Nc2nc3ccc(-c4ccnc(C)n4)cc3[nH]2)n1` [Example 24.02.02, 3,3,3-trifluoro-1-{4-[(2-methyl-6-{[6-(2-methylpyrimidin-4-yl)-1H-benzimidazol-2-yl]amino}pyridin-4-yl)methyl]piperazin-1-yl}propan-1-one], the half-inhibitory concentration (IC50) worked out at 63.1 nM.

Regarding `COc1cncnc1-c1ccc2nc(Nc3cc(C(C)N4CCN(C(=O)CC(F)(F)F)CC4)ccn3)[nH]c2c1` (racemic) [Example 35.02.01, (rac)-3,3,3-trifluoro-1-{4-[1-(2-{[6-(5-methoxypyrimidin-4-yl)-1H-benzimidazol-2-yl]amino}pyridin-4-yl)ethyl]piperazin-1-yl}propan-1-one], the IC50 is 7.67 nM.

`O=C(C1CC1)N1CCN(Cc2ccnc(Nc3nc4ccc(-c5ncccn5)cc4[nH]3)c2)CC1` [Example 180.03, cyclopropyl{4-[(2-{[6-(pyrimidin-2-yl)-1H-benzimidazol-2-yl]amino}pyridin-4-yl)methyl]piperazin-1-yl}methanone]: the IC50 stood at 364 nM.

Consider `COCCCS(=O)(=O)N1CCN(Cc2ccnc(Nc3nc4ccc(-c5ncncc5OC)cc4[nH]3)c2)CC1` [Example 35.01.10, N-[4-({4-[(3-methoxypropyl)sulfonyl]piperazin-1-yl}methyl)pyridin-2-yl]-6-(5-methoxypyrimidin-4-yl)-1H-benzimidazol-2-amine], for which the IC50 came to 35 nM.

As to `Cc1nccc(-c2ccc3nc(Nc4cc(C(C)N5CCN(C(=O)CC6CC6)CC5)ccn4)[nH]c3c2)n1` (racemic) [Example 24.04.04, (rac)-2-cyclopropyl-1-{4-[1-(2-{[6-(2-methylpyrimidin-4-yl)-1H-benzimidazol-2-yl]amino}pyridin-4-yl)ethyl]piperazin-1-yl}ethanone], the IC50 amounted to 14.4 nM.

The values are drawn from patent US10894784B2, “Heteroarylbenzimidazole compounds” (BAYER PHARMA AKTIENGESELLSCHAFT, priority 2015, dated 2021).
